Measured values published in paper PMC4854315, “Discovery of a novel allosteric inhibitor-binding site in ERK5: comparison with the canonical kinase hinge ATP-binding site” (Acta Crystallographica. Section D, Structural Biology, 2016).

How the values were obtained:
Assay in all cases: Z'-LYTE kinase panel
Format in all cases: biochemical
CAMK4 (CaMKIV) = biological target: T1, CAMK4 (CaMKIV) (Homo sapiens, UniProt Q16566)
T1 construct: purchased ThermoFisher (SelectScreen, Z'-LYTE)
How it was run: (§1)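 Screened at 10 µM against a 225-kinase panel; the Z′-LYTE standard assay gave percentage inhibition values.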

EPHA8 = biological target: T2, EPHA8 (Homo sapiens, UniProt P29322)
T2 construct: purchased ThermoFisher (SelectScreen, Z'-LYTE)
T2 sequence (P29322 28-1005): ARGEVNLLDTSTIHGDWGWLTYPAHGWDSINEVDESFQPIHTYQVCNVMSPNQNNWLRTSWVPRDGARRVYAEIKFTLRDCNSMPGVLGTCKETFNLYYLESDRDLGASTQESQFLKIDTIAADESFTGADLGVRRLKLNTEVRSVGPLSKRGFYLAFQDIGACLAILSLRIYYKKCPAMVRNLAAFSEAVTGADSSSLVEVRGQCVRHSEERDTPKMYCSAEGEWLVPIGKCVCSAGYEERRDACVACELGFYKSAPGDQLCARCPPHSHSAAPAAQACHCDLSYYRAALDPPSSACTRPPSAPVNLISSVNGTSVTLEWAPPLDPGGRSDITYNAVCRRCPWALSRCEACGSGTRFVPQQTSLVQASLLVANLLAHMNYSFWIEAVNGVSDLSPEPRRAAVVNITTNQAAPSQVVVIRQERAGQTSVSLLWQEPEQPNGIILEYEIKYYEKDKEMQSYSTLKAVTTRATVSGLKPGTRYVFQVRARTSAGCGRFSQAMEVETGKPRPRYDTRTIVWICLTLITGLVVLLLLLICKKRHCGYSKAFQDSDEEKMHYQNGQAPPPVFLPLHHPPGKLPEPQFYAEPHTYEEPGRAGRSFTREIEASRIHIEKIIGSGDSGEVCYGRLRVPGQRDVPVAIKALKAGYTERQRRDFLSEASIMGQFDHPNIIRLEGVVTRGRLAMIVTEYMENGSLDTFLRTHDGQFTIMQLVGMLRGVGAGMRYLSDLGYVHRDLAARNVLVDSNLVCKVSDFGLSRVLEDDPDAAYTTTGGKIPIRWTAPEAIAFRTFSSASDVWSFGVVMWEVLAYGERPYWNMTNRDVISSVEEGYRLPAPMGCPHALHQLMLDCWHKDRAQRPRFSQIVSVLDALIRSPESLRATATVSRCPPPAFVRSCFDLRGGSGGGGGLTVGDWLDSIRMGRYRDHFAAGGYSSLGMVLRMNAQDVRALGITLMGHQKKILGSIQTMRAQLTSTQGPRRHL
How it was run: as §1

FGFR1 = biological target: T3, FGFR1 (Homo sapiens, UniProt P11362)
T3 construct: purchased ThermoFisher (SelectScreen, Z'-LYTE)
How it was run: as §1

FLT1 (VEGFR1) = biological target: T4, FLT1 (VEGFR1) (Homo sapiens, UniProt P17948)
T4 construct: purchased ThermoFisher (SelectScreen, Z'-LYTE)
How it was run: as §1

FRAP1 (mTOR) = biological target: T5, FRAP1 (mTOR) (Homo sapiens, UniProt P42345)
T5 construct: purchased ThermoFisher (SelectScreen, Z'-LYTE)
How it was run: as §1

MST4 = biological target: T6, MST4 (Homo sapiens, UniProt Q9P289)
T6 construct: purchased ThermoFisher (SelectScreen, Z'-LYTE)
How it was run: as §1

NEK2 = biological target: T7, NEK2 (Homo sapiens, UniProt P51955)
T7 construct: purchased ThermoFisher (SelectScreen, Z'-LYTE)
T7 sequence (P51955 1-445): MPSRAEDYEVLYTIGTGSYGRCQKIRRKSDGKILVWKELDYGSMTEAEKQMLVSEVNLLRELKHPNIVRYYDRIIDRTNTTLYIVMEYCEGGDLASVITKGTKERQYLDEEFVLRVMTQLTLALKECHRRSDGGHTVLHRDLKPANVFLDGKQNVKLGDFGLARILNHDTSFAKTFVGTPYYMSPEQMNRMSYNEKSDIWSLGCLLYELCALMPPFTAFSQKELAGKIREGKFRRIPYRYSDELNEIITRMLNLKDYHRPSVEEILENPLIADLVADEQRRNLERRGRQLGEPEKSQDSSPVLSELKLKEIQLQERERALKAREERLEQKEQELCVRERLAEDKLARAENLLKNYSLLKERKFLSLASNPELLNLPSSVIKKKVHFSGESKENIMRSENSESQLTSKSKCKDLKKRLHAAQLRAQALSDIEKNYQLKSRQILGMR
How it was run: as §1

NEK4 = biological target: T8, NEK4 (Homo sapiens, UniProt P51957)
T8 construct: purchased ThermoFisher (SelectScreen, Z'-LYTE)
How it was run: as §1

PRKCA (PKC alpha) = biological target: T9, PRKCA (PKC alpha) (Homo sapiens, UniProt P17252)
T9 construct: purchased ThermoFisher (SelectScreen, Z'-LYTE)
How it was run: as §1

ROS1 = biological target: T10, ROS1 (Homo sapiens, UniProt P08922)
T10 construct: purchased ThermoFisher (SelectScreen, Z'-LYTE)
How it was run: as §1

STK23 (MSSK1) = biological target: T11, STK23 (MSSK1) (Homo sapiens, UniProt Q9UPE1)
T11 construct: purchased ThermoFisher (SelectScreen, Z'-LYTE)
How it was run: as §1

TYRO3 (RSE) = biological target: T12, TYRO3 (RSE) (Homo sapiens, UniProt Q06418)
T12 construct: purchased ThermoFisher (SelectScreen, Z'-LYTE)
T12 sequence (Q06418 41-890): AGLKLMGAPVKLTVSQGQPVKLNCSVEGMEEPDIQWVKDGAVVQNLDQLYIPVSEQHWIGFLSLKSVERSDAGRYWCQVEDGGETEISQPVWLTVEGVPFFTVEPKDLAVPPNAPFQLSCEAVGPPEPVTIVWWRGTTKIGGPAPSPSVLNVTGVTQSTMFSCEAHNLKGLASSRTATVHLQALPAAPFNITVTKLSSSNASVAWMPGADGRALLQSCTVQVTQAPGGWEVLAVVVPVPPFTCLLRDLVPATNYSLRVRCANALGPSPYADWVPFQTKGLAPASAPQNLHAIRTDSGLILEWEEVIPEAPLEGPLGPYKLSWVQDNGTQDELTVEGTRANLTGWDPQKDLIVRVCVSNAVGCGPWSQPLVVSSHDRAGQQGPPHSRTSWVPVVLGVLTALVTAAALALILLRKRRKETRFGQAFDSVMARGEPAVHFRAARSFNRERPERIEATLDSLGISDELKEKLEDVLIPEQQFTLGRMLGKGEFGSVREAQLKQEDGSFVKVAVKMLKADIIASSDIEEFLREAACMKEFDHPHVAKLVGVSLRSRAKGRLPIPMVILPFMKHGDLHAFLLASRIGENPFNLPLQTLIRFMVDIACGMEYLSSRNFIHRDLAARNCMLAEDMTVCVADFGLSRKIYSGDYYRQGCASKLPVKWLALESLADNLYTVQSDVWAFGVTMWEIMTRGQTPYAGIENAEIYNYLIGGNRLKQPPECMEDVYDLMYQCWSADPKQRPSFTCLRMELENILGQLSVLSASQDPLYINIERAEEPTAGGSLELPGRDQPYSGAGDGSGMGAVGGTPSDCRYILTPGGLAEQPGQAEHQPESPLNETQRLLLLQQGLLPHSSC
How it was run: as §1

T11 sequence (Q9UPE1 whole entry): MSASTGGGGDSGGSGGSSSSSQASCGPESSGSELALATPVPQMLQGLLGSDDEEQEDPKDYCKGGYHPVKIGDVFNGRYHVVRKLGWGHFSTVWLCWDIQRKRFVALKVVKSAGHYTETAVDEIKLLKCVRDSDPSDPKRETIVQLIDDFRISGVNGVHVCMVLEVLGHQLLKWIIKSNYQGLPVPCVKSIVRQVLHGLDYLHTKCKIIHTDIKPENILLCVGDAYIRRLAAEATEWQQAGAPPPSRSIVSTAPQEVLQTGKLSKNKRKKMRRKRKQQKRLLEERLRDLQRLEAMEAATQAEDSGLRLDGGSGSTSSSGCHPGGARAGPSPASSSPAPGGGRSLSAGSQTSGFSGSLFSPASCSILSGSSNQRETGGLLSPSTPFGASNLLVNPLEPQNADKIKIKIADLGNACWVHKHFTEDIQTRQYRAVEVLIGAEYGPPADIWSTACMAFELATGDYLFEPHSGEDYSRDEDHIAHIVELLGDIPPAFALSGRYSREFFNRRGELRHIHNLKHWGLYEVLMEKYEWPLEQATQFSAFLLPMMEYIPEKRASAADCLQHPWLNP
T3 sequence (P11362 22-822): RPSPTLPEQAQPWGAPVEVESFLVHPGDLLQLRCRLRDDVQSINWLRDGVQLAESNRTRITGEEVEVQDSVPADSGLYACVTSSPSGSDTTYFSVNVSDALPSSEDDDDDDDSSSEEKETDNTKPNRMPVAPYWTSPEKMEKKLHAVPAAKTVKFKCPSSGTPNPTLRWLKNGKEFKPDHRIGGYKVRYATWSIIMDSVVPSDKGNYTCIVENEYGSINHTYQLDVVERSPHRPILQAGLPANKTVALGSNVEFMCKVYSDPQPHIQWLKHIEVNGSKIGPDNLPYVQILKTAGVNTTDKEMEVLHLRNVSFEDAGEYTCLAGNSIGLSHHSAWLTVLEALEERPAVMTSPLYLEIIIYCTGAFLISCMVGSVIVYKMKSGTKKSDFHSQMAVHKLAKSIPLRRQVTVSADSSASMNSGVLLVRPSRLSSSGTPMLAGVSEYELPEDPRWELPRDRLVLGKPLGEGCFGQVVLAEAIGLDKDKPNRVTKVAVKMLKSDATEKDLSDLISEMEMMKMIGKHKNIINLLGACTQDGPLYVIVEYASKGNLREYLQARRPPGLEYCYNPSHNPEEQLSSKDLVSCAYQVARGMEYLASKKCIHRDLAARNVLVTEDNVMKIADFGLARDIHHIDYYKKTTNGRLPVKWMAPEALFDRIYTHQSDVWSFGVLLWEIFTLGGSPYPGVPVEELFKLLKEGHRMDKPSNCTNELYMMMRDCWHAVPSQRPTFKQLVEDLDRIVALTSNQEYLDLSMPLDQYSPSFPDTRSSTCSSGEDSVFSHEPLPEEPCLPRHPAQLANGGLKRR
T10 sequence (P08922 28-2347): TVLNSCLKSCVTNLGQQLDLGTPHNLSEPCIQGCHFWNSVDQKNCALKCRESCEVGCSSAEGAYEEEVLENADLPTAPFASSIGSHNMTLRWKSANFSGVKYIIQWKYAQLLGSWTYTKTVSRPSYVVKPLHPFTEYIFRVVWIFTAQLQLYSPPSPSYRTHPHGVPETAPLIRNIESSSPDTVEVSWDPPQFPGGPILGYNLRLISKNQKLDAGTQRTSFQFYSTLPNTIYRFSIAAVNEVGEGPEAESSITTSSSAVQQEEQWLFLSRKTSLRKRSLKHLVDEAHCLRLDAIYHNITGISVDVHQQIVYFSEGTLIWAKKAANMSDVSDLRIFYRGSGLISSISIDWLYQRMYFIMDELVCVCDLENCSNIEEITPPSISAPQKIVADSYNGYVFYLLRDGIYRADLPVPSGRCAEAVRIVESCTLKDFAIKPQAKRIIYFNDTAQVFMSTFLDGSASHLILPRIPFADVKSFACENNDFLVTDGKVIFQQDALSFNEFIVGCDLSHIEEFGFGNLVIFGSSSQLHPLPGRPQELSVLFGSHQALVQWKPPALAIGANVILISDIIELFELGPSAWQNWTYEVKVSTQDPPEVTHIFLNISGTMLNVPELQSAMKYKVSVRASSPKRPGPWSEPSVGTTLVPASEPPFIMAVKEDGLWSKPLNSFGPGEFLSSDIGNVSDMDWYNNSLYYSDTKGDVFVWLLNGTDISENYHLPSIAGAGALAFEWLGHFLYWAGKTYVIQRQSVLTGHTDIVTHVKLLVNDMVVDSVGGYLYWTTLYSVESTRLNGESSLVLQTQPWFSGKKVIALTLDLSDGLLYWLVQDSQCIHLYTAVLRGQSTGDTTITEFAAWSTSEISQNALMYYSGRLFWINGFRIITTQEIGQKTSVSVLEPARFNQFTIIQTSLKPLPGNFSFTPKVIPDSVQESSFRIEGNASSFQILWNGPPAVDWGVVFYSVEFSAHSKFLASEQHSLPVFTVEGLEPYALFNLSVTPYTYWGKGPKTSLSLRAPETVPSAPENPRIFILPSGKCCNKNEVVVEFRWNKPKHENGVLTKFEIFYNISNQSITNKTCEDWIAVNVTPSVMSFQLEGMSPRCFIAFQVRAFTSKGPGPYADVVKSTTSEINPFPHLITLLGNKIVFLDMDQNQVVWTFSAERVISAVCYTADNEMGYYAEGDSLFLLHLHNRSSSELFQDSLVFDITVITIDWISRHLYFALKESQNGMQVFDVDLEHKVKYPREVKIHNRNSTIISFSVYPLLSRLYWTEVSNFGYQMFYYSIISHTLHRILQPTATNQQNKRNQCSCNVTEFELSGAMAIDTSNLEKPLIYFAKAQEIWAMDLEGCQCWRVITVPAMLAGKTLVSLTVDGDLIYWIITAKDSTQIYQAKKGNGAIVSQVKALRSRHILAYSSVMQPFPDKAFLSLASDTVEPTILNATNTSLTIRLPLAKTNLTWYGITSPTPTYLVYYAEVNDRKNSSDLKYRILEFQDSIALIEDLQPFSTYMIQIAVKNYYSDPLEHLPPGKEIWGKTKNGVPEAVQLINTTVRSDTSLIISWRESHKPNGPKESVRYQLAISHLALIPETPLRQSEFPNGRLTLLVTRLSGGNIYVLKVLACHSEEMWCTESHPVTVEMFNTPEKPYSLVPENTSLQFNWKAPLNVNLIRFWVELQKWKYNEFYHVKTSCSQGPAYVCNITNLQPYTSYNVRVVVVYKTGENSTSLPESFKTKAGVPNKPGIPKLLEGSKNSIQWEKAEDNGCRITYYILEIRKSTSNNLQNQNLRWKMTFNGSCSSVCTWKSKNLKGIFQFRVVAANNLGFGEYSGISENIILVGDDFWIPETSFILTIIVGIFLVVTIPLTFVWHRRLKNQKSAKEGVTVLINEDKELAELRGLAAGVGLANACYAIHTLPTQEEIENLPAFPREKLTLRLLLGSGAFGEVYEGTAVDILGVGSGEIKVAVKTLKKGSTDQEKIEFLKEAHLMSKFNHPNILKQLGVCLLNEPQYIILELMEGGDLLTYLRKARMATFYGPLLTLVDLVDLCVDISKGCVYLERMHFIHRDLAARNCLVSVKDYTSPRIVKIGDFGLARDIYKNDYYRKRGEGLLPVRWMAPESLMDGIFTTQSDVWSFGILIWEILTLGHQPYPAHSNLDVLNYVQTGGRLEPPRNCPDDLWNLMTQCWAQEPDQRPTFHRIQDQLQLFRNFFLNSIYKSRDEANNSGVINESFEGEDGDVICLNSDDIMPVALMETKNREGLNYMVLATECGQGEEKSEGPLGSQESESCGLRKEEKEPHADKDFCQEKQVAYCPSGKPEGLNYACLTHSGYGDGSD
T6 sequence (Q9P289 whole entry): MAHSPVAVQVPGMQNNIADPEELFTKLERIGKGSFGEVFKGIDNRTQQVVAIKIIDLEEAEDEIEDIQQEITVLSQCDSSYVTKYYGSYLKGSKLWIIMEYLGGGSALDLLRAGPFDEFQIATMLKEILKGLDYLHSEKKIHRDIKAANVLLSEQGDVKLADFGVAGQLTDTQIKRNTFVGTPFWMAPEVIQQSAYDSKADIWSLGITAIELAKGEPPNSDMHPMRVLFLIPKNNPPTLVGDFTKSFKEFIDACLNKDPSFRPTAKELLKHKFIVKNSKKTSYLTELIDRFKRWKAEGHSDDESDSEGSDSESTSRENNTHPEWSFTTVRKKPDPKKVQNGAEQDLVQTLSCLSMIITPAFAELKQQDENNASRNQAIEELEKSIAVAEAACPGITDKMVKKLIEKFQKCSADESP

| Compound | inhibition at 10 µM (CAMK4 (CaMKIV)) [%] | inhibition at 10 µM (EPHA8) [%] | inhibition at 10 µM (FGFR1) [%] | inhibition at 10 µM (FLT1 (VEGFR1)) [%] | inhibition at 10 µM (FRAP1 (mTOR)) [%] | inhibition at 10 µM (MST4) [%] | inhibition at 10 µM (NEK2) [%] | inhibition at 10 µM (NEK4) [%] | inhibition at 10 µM (PRKCA (PKC alpha)) [%] | inhibition at 10 µM (ROS1) [%] | inhibition at 10 µM (STK23 (MSSK1)) [%] | inhibition at 10 µM (TYRO3 (RSE)) [%] | also measured |
| --- | --- | --- | --- | --- | --- | --- | --- | --- | --- | --- | --- | --- | --- |
| XMD8-92 [Compound 2, reference compound] | – | – | – | – | – | – | – | – | – | – | – | – | CAMK4 (CaMKIV) % Inhibition (CAMK4 (CaMKIV); 10 µM compound, ATP Km app): 3%; EPHA8 % Inhibition (EPHA8; 10 µM compound, ATP Km app): 23%; FGFR1 % Inhibition (FGFR1; 10 µM compound, ATP Km app): 8%; FLT1 (VEGFR1) % Inhibition (FLT1 (VEGFR1); 10 µM compound, ATP Km app): -1.58%; FRAP1 (mTOR) % Inhibition (FRAP1 (mTOR); 10 µM compound, ATP Km app): -15%; MST4 % Inhibition (MST4; 10 µM compound, ATP Km app): 15%; NEK2 % Inhibition (NEK2; 10 µM compound, ATP Km app): -17%; NEK4 % Inhibition (NEK4; 10 µM compound, ATP Km app): 2.63%; PRKCA (PKC alpha) % Inhibition (PRKCA (PKC alpha); 10 µM compound, ATP Km app): 47%; ROS1 % Inhibition (ROS1; 10 µM compound, ATP Km app): 69%; STK23 (MSSK1) % Inhibition (STK23 (MSSK1); 10 µM compound, ATP Km app): 15%; TYRO3 (RSE) % Inhibition (TYRO3 (RSE); 10 µM compound, ATP Km app): 9% |
| Cc1ncc(-c2nc(Nc3ccc(C(=O)NCCN4CCCCC4)cc3)ncc2F)n1C(C)C [Compound 3] | 8 | 50 | 73 | 73 | 44 | 75 | -7.52 | 23 | 102 | 99 | 15 | 92 | – |
| Cc1cc(Nc2nc(N)nn2C(=O)NC(C)C)ccc1Cl [Compound 5] | -10 | 0.0057 | 17 | 34 | -12 | 43 | -3 | 17 | 7 | 57 | -2.48 | 14 | – |
